The source of these data is patent publication US20250034200A1, “Prodrugs of Neurosteroid Analogs and Uses Thereof” (priority 2021, published 2025).

Structures are written as SMILES. Structures can show the parent of a compound that is named as a salt. Where two headings read alike, the source gives them in different places.

The nature of data set [1]: Plasma stability assay (LC-MS/MS). Particulars: for half-life: read-out: Plasma t1/2 (converted). In kind it is in vitro ADME. In a few lines: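 Compound (3 μM final; 0.03% DMSO, up to 0.6% methanol) was incubated in human plasma at 37° C for up to 240 min, sampled at 0, 15, 30, 60, 120, 180 and 240 min in duplicate. Samples were quenched in cold acetonitrile or methanol with internal standard and quantified by LC-MS/MS (ESI+, MRM). Stability was derived from the slope of ln(% parent remaining) versus time.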

Data set [2] is described as follows: Aqueous stability assay (HPLC, pseudo first-order half-life). It is filed as physicochemical. Particulars: for stability in the acidic aqueous mediums: pH 4.0 and 5.5.
The subject of data set [3] is rat disease model of acute TBI. In words: Edema assay in rat model of acute TBI (controlled cortical impact). It is filed as in vivo. Particulars: for reduced brain edema: 10 mg/kg IM at 1 and 6 h post-TBI, edema at 24 h. How it is done: A prodrug dose of 10 mg/kg was chosen and administered IM at 1 and 6 hours post-injury. Prodrug dosage is equimolar±5% with respective to the parent compound.
Subjects—Male SD rats weighing 250-350 g at the time of injury were used for the efficacy study, which was conducted in our facility at Emory University. The rats were maintained on a reverse 12:12 light-dark cycle at 22±1° C. with appropriate humidity levels. After one week of quarantine the rats were handled at least 3 times prior to surgery. This study was conducted in a facility approved by the American Association for the Accreditation of Laboratory Animal Care (AAALAC) in accordance with all National Institutes of Health guidelines. All experimental animal procedures were approved by the Emory University Institutional Animal Care and Use Committee.
Contusion Injury—Rats were anesthetized using isoflurane gas (5% induction, 1.5% maintenance, 700 mmHg N2O, 500 mmHg O2) and then mounted in a Kopf stereotaxic device (David Kopf Instruments, Tujunga, CA, USA). The scalp incision area was shaved and sterilized with Betadine® antiseptic and 70% isopropanol. Physiological parameters were monitored with pulse oximetry (SurgiVet model V3304): heart rate was maintained above ˜300 beats per minute and SpO2 kept above 90%. Core body temperature (˜37° C.) was maintained with a homeothermic heating blanket system (Harvard Apparatus, Holliston, MA, USA). Under aseptic conditions, a midline incision was made into the skin and fascia covering the skull. Cotton swabs were used to staunch and clean any fascial bleeding. […]
Treatment—Animals were randomly assigned to one of four treatment groups. […] Percent change in brain tissue water content was measured.
Edema Assay—Edema was measured at 24 h after surgery. […] The percent water content was calculated by [(wet wt-dry wt)/wet wt]×100. The percent difference in water content between the anterior peri-contusional and the posterior distal section was calculated for each sample by: [(anterior H2O %-posterior H2O %)/(posterior H2O %)]×100.

A short description of data set [4]: Nephelometry (aqueous solubility). It is filed as physicochemical. Particulars: DPBS with 1% DMSO, aqueous buffer, kinetic from dmso stock, DPBS pH 7.0-7.3, 1% DMSO, 25° C. From the text: Well A1 of the plate contained 100% DMSO.
The conditions of data set [5]: male, Sprague Dawley, rat, in vivo.
Method: (§1) Test System—Healthy male Sprague Dawley rats (8-12 weeks old) weighing between 200 to 250 g were procured from Global, India. […] Temperature and humidity were maintained at 22±3° C. and 30-70%, respectively and illumination was controlled to give a sequence of 12 h light and 12 h dark cycle. Temperature and humidity were recorded by auto-controlled data logger system. All the animals were provided with laboratory rodent diet (Envigo Research private Ltd, Hyderabad). Reverse osmosis water treated with ultraviolet light was provided ad libitum.
(§2) Design—Rats (n=3 per treatment group, serial sampling) were administered a solution of either normal saline vehicle or test compound in normal saline at 2 mg/kg (IV) or 10 mg/kg (IM) with a dosing volume of 5 mL/kg (IV) or 1 mL/kg (IM).
(§3) Sample Collection—Blood samples (approximately 60 μL) were collected under light isoflurane anesthesia (Surgivet®) from retro orbital plexus from a set of three rats at 0.08, 0.25, 0.5, 1, 2, 4, 6, 8 and 10 h (IV) or 0.25, 0.5, 1, 2, 4, 6, 8 and 10 h (IM). Immediately after blood collection, plasma was harvested by centrifugation 4000 rpm, 10 min at 40° C. and samples were stored at −70±10° C. until bioanalysis.
(§4) Data Analysis—Concentrations of the test compound and its parent compound, progesterone C20-oxime, in rat plasma were determined by fit-for-purpose LC-MS/MS method by Sai Life Sciences. […] Cmax represents the mean observed maximum concentration of analyte. Tmax represents the average time at observed Cmax. Areas under the curve (AUC0-last) were calculated via the linear trapezoidal rule using GraphPad Prism v9.
Data set [6] is described as follows: Rat plasma pharmacokinetic study. Particulars: IV and IM routes.
Method: as §1, §2, §3, §4
[7] abbreviates: acetate buffer pH 4.0, read-out: Acetate buffer (pH 4.0) t1/2 (converted).
[8] abbreviates: acetate buffer pH 5.5, read-out: Acetate buffer (pH 5.5) t1/2 (converted).
Where [9] appears, read: buffer, DPBS pH 7.0-7.3, 1 mg/mL, room temperature, read-out: PBS t1/2 (converted).

Broadly, the solubility is how much of the substance goes into solution per volume. A low value points to a poorly soluble substance. Take `CNCCN(C)C(=O)O/N=C(\C)[C@H]1CC[C@H]2[C@@H]3CCC4=CC(=O)CC[C@]4(C)[C@H]3CC[C@]12C` [32b, (E)-9-((8S,9S,10R,13S,14S,17S)-10,13-dimethyl-3-oxo-2,3,6,7,8,9,10,11,12,13,14,15,16,17-tetradecahydro-1H-cyclopenta[a]phenanthren-17-yl)-5-methyl-7-oxa-2,5,8-triazadec-8-en-6-one hydrochloride]: the “stability in human plasma” value in data set [1] is “unstable”. In addition, the “formation of the corresponding oxime (progesterone C20-oxime)” value in data set [1] (human plasma) is recorded as “observed”. In addition, the half-life in data set [1] (human plasma, 37° C., 3 μM) was 1.5 h; in data set [2] (setting [7]) it was 96 days; in data set [2] (setting [8]) it was 80 days. Moreover, the “PBS t1/2” value in data set [2] (DPBS pH 7.0-7.3, 1 mg/mL, room temperature) came out at 46.9 ± 0.8 h. For the same compound, the “stability in the acidic aqueous mediums” value in data set [2] is “stable”. This compound yielded a reduced brain edema in data set [3] of 31%. The solubility at 90 min in data set [4] was more than 750 µM.

`C/C(=N/OCOP(=O)([O-])[O-])[C@H]1CC[C@H]2[C@@H]3CCC4=CC(=O)CC[C@]4(C)[C@H]3CC[C@]12C.[Na+].[Na+]` [EIDD-1723]: in data set [5], the “increase in the dose-corrected exposure to parent progesterone C20-oxime, IM compared to the IV route” value came to 3 fold. Also, the “Parent AUClast” value in data set [5] (im, 10 mg/kg) was determined as 753 ± 29 ng·h/mL. Also, in data set [5] (iv, 2 mg/kg), the “Parent AUClast” value amounted to 48 ± 6 ng·h/mL and the “Parent Cmax” value is 219 ng/mL.

As to `C/C(=N\OC(=O)N(C)C[C@@H]1CCCN1)[C@H]1CCC2[C@@H]3CCC4=CC(=O)CC[C@]4(C)[C@H]3CC[C@@]21C.Cl` (stereo partly drawn) [32j, (8S,9S,10R,13S,17S)-10,13-dimethyl-17-((E)-1-(((methyl(((S)-pyrrolidin-2-yl)methyl)carbamoyl)oxy)imino)ethyl)-1,2,6,7,8,9,10,11,12,13,14,15,16,17-tetradecahydro-3H-cyclopenta[a]phenanthren-3-one hydrochloride], the “stability in human plasma” value in data set [1] is “unstable”. The “formation of the corresponding oxime (progesterone C20-oxime)” value in data set [1] (human plasma) is on record as “observed”. Also, the half-life was less than 0.1 h in data set [1] (human plasma, 37° C., 3 μM); 48 days in data set [2] (setting [7]); 2.4 days in data set [2] (setting [8]); 0.0792 ± 0.00417 days in data set [2] (setting [9]). Also, the “stability in the acidic aqueous mediums” value in data set [2] is reported as “stable”. This compound showed a reduced brain edema in data set [3] of 40%. The “reducing brain edema, comparison with EIDD-1723” value in data set [3] (10 mg/kg dose IM) is “equally efficacious”. Also, in data set [6], the “formation of parent progesterone C20-oxime” value was “rapid and extensive”.

As for `C/C(=N\OC(=O)NCCN(C)C)[C@H]1CC[C@H]2[C@@H]3CCC4=CC(=O)CC[C@]4(C)[C@H]3CC[C@]12C.Cl` [compound 34, (E)-9-((8S,9S,10R,13S,14S,17S)-10,13-dimethyl-3-oxo-2,3,6,7,8,9,10,11,12,13,14,15,16,17-tetradecahydro-1H-cyclopenta[a]phenanthren-17-yl)-2-methyl-7-oxa-2,5,8-triazadec-8-en-6-one hydrochloride], the “Plasma t1/2” value in data set [1] (human plasma, 37° C., 3 μM) is on record as more than 3.5 h. The half-life in data set [2] (buffer, DPBS pH 7.0-7.3, 1 mg/mL, room temperature, d (days), read-out: PBS t1/2 (converted)) is 32.8 days. Also, the solubility at 90 min in data set [4] was more than 750 µM.

Take `CNCCN(CC(C)C)C(=O)O/N=C(\C)[C@H]1CC[C@H]2[C@@H]3CCC4=CC(=O)CC[C@]4(C)[C@H]3CC[C@]12C.O=C(O)C(F)(F)F` [53e, (E)-9-((8S,9S,10R,13S,14S,17S)-10,13-dimethyl-3-oxo-2,3,6,7,8,9,10,11,12,13,14,15,16,17-tetradecahydro-1H-cyclopenta[a]phenanthren-17-yl)-5-isobutyl-7-oxa-2,5,8-triazadec-8-en-6-one 2,2,2-trifluoroacetate]: in data set [1] (human plasma, 37° C., 3 μM, 2 h), the “Plasma % rmn at 2 h” value is 83%. Also, the half-life in data set [2] (setting [9]) is more than 1 days. The solubility at 90 min in data set [4] is more than 750 µM.
